According to patent publication US20260109721A1, “IONIZABLE CATIONIC LIPIDS INCORPORATING SILICON: SYNTHESIS AND LNP FORMULATION” (priority 2023, published 2026):

What was measured:
[1] = tested on: HepG2 cell line; experiment: In vitro toxicity study on HepG2 cell line (resazurin, viability and IC50); format: cell-based, human; details: for IC50: Homo sapiens, lipid toxicity, HepG2, 48 h post-treatment, 6.25-800 μM, read-out: IC50 value, μM (on HepG2 cell)
Procedure, shortened: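 HepG2 cells (1000/well) were treated after overnight incubation with lipids at 6.25–800 μM for 48 h. Viability was read by resazurin fluorescence (530/580 nm) after 5 h at 37 °C, relative to ethanol vehicle controls. IC50 values came from concentration-response curves.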

[2] = LNP size, PDI and zeta potential by Dynamic Light Scattering (Method A); format: physicochemical; details: LNP formulated with the lipid, DLS
Procedure, shortened: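 LNPs formed by microfluidic mixing of ethanolic lipid mix with Luc mRNA in 10 mM citrate pH 4.0, about 12 ml/min total flow at 3:1 ratio. Particle size, PDI and zeta potential then measured by dynamic light scattering.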

[3] = HepG2 cells, 6.25 μM lipid, 48 h post-treatment, resazurin, relative to ethanol vehicle controls
[4] = HepG2 cells, 12.5 μM lipid, 48 h post-treatment, resazurin, relative to ethanol vehicle controls
[5] = HepG2 cells, 25 μM lipid, 48 h post-treatment, resazurin, relative to ethanol vehicle controls
[6] = HepG2 cells, 50 μM lipid, 48 h post-treatment, resazurin, relative to ethanol vehicle controls
[7] = HepG2 cells, 100 μM lipid, 48 h post-treatment, resazurin, relative to ethanol vehicle controls
[8] = HepG2 cells, 200 μM lipid, 48 h post-treatment, resazurin, relative to ethanol vehicle controls
[9] = HepG2 cells, 400 μM lipid, 48 h post-treatment, resazurin, relative to ethanol vehicle controls
[10] = HepG2 cells, 800 μM lipid, 48 h post-treatment, resazurin, relative to ethanol vehicle controls

Row | Structure (SMILES) | Viability (%) at different lipid concentrations, mean [1, 3] [%] | Viability (%) at different lipid concentrations, mean [1, 4] [%] | Viability (%) at different lipid concentrations, mean [1, 5] [%] | Viability (%) at different lipid concentrations, mean [1, 6] [%] | Viability (%) at different lipid concentrations, mean [1, 7] [%] | Viability (%) at different lipid concentrations, mean [1, 8] [%] | Viability (%) at different lipid concentrations, mean [1, 9] [%] | Viability (%) at different lipid concentrations, mean [1, 10] [%] | IC50 ([1]; resazurin) [µM] | PDI [2] | Size (nm) [2] [nm] | Zeta potential (mV) [2] [mV] | Viability (%) at different lipid concentrations, mean ([1]; human, 48 h, 25 μM) [%] | Viability (%) at different lipid concentrations, mean ([1]; human, 48 h, 6.25 μM) [%] | Viability (%) at different lipid concentrations, mean ([1]; human, 48 h, 12.5 μM) [%] | Viability (%) at different lipid concentrations, mean ([1]; human, 48 h, 50 μM) [%] | Viability (%) at different lipid concentrations, mean ([1]; human, 48 h, 100 μM) [%] | Viability (%) at different lipid concentrations, mean ([1]; human, 48 h, 200 μM) [%] | Viability (%) at different lipid concentrations, mean ([1]; human, 48 h, 400 μM) [%] | Viability (%) at different lipid concentrations, mean ([1]; human, 48 h, 800 μM) [%]
1 | CCCCCCCC/C=C\CCCCCCCCOC(=O)C(C)(C)CC(OCCCCCCCC/C=C\CCCCCCCC)O[Si](C)(C)OCCCCCCN(C)CCCCO (stereo not drawn) [Example 91, (Z)-octadec-9-en-1-yl 18-hydroxy-2,2,6,6,14-pentamethyl-4-(((Z)-octadec-9-en-1-yl)oxy)-5,7-dioxa-14-aza-6-silaoctadecanoate] | 100.2 | 98.8 | 108.4 | 112.4 | 103.1 | 88.0 | 61.2 | 44.1 | 625 | 0.17 | 85.49 | −15.27 | – | – | – | – | – | – | – | –
2 | CCCCCCCC/C=C\CCCCCCCCOC(CCCCCCC/C=C\CCCCCCCC)O[Si](C)(C)OCCCCCCN(CCO)CCO (stereo not drawn) [Example 47, (Z)-13-((Z)-heptadec-8-en-1-yl)-3-(2-hydroxyethyl)-11,11-dimethyl-10,12,14-trioxa-3-aza-11-siladotriacont-23-en-1-ol] | 104.8 | 98.6 | 99.5 | 105.3 | 112.3 | 116.3 | 97.9 | 93.6 | > 800 | 0.014 | 125.0 | −8.469 | – | – | – | – | – | – | – | –
3 | CCCCCCCC/C=C\CCCCCCCCOC(CCCCCCC/C=C\CCCCCCCC)O[Si](C)(C)OCCCCCCN(C)[C@H](CO)Cc1ccccc1 (stereo partly drawn) [Example 78, (2S,Z)-2-benzyl-13-((Z)-heptadec-8-en-1-yl)-3,11,11-trimethyl-10,12,14-trioxa-3-aza-11-siladotriacont-23-en-1-ol] | 92.0 | 101.6 | 101.5 | 102.9 | 101.9 | 100.8 | 56.4 | 1.6 | 414 | 0.10 | 92.14 | −19.77 | – | – | – | – | – | – | – | –
4 | CCCCCCCC/C=C\CCCCCCCC(OCCCCCCCCCCCC1CCCCC1)O[Si](C)(C)OCCCCCCN(CCO)CCO (stereo not drawn) [Example 74, (Z)-25-cyclohexyl-13-(heptadec-8-en-1-yl)-3-(2-hydroxyethyl)-11,11-dimethyl-10,12,14-trioxa-3-aza-11-silapentacosan-1-ol] | 101.5 | 100.8 | – | 112.5 | 121.9 | 117.3 | 103.1 | 93.8 | > 800 | 0.19 | 73.11 | −9.76 | 107.8 | – | – | – | – | – | – | –
5 | CCCCC/C=C\C/C=C\CCCCCCCCOC(CCCCCCC/C=C\C/C=C\CCCCC)O[Si](C)(C)OCCCCCCN(CCO)CCN(CCO)CCCCCCO[Si](C)(C)OC(CCCCCCC/C=C\C/C=C\CCCCC)OCCCCCCCC/C=C\C/C=C\CCCCC (stereo not drawn) [Example 71, (26Z,29Z)-16-((8Z,11Z)-heptadeca-8,11-dien-1-yl)-3-((20Z,23Z)-10-((8Z,11Z)-heptadeca-8,11-dien-1-yl)-8,8-dimethyl-7,9,11-trioxa-8-silanonacosa-20,23-dien-1-yl)-6-(2-hydroxyethyl)-14,14-dimethyl-13,15,17-trioxa-3,6-diaza-14-silapentatriaconta-26,29-dien-1-ol] | 102.71 | 102.5 | 106.2 | 107.61 | 93.09 | 72.87 | 39.19 | 9.92 | 321 | 0.103 | 166.6 | −11.09 | – | – | – | – | – | – | – | –
6 | CCCCC/C=C\C/C=C\CCCCCCCCOC(CCCCCN(CCO)CCO)O[Si](C)(C)OCCCCCCCC/C=C\C/C=C\CCCCC (stereo not drawn) [Example 39, (21Z,24Z)-3-(2-hydroxyethyl)-11,11-dimethyl-9-(((9Z,12Z)-octadeca-9,12-dien-1-yl)oxy)-10,12-dioxa-3-aza-11-silatriaconta-21,24-dien-1-ol] | – | – | – | – | – | – | – | – | 667 | 0.072 | 170.4 | −9.414 | 99.4 | 99.8 | 97.8 | 98.6 | 100.3 | 106.1 | 83.4 | 35.8
7 | CCCCCCCC/C=C\CCCCCCCCOC(=O)C(C)(C)CC(OCCCCCCCC/C=C\CCCCCCCC)O[Si](C)(C)OCCCCCCN1CCCC1CO (stereo not drawn) [Example 90, (Z)-octadec-9-en-1-yl 4-((((6-(2-(hydroxymethyl)pyrrolidin-1-yl)hexyl)oxy)dimethylsilyl)oxy)-2,2-dimethyl-4-(((Z)-octadec-9-en-1-yl)oxy)butanoate] | 101.5 | 96.4 | 96.6 | 100.5 | 105.8 | 104.9 | 93.1 | 84.0 | > 800 | 0.14 | 100.2 | −16.19 | – | – | – | – | – | – | – | –
8 | CCCCC/C=C\C/C=C\CCCCCCCCO[Si](C)(C)OC(CCCCCCC/C=C\C/C=C\CCCCC)OCCCCCCN(CCO)CCO (stereo not drawn) [Example 40, (23Z,26Z)-11-((8Z,11Z)-heptadeca-8,11-dien-1-yl)-3-(2-hydroxyethyl)-13,13-dimethyl-10,12,14-trioxa-3-aza-13-siladotriaconta-23,26-dien-1-ol] | 100.8 | 97.6 | 98.9 | 101.8 | 109.7 | 115.3 | 102.0 | 89.0 | > 800 | 0.020 | 152.7 | −8.912 | – | – | – | – | – | – | – | –
